Our source for the Kd and inhibition values is patent US12570687B2, “Triterpenoid compounds, pharmaceutical compositions thereof, and their use for treating a nuclear receptor subfamily 4 group a member 1-mediated disease” (NUCMITO PHARMACEUTICALS COMPANY LIMITED, priority 2019, dated 2026).

SMILES strings stand for the structures. pKd: −log10 of the molar value.

The target of one assay is Nur77-LBD (Homo sapiens, UniProt P22736). The experiment in a line: Surface plasmon resonance (SPR) binding to Nur77-LBD. The note with it: BIAcore T200, 25° C., 1:1 Langmuir binding mode, read-out: Kd when binding to the Nur77-LBD protein. The protocol: A test compound was analyzed for its binding kinetics with Nur77-LBD at 25° C. on a BIAcore T200 machine with CM5 chips. PBSP was used for all measurements. For SPR measurements, Nur77-LBD proteins were purified. A blank channel was used as negative control. About 10,000 response units of Nur77-LBD were immobilized on the chips. When the data collection was finished in each cycle, the sensor surface was regenerated with glycine-HCl at pH 2.5. A serial of concentrations ranging from 0.15 to 5.0 μM of the test compound was used. Sensograms were fit globally with BIAcore T200 analysis using 1:1 Langmuir binding mode.
Nur77-LBD, sequence (P22736 360-595 limits assumed, species assumed): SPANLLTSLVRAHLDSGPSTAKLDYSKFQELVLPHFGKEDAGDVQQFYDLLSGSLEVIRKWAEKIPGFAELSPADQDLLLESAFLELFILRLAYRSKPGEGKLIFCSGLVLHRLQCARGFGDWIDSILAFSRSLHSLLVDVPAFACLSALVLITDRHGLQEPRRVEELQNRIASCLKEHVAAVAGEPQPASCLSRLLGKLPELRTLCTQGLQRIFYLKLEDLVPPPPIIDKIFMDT

The subject of assay [1] is MDA-MB-231 (breast cancer). The assay is described as follows: MTT antiproliferative assay, MDA-MB-231. In kind it is cell-based. The note with it: Homo sapiens, MDA-MB-231, 10 μM, 48 or 72 h, read-out: inhibition of cell growth, MDA-MB-231. In a few lines: (§1)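 Cells seeded at 2,000-5,000/well were treated with compound at 0.137 to 100 μM or a single 10 μM for 48 or 72 h at 37° C. MTT was added for a further 4 h, formazan dissolved in DMSO and absorbance read at 490 nm; viability was expressed relative to DMSO vehicle.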
Background: Tetrazolium assays rely on reduction of a dye to a coloured formazan, in cell work by metabolically active cells.

A further assay relates to HeLa (ovarian cancer). The assay is described as follows: MTT antiproliferative assay, HeLa. The assay is classed as cell-based. The note with it: Homo sapiens, 48 or 72 h, read-out: inhibition of cell growth, HELA. In a few lines: as §1
The test system of a further assay is SW620 (colon cancer). The assay is described as follows: MTT antiproliferative assay, SW620. In kind it is cell-based. Particulars: Homo sapiens, SW-620, SW620, 10 μM, 48 or 72 h, read-out: inhibition of cell growth, SW620. In a few lines: as §1
Assay [2] deals with A549 (lung adenocarcinoma). The assay is described as follows: MTT antiproliferative assay, A549. The note with it: Homo sapiens, A549, 10 μM, 48 or 72 h, read-out: inhibition of cell growth, A549. The assay is classed as cell-based. The essentials:
as §1

Assay [3] concerns A431 (epidermoid carcinoma). The experiment in a line: MTT antiproliferative assay, A431. The assay is classed as cell-based. Particulars: Homo sapiens, A-431, A431, 10 μM, 48 or 72 h, read-out: inhibition of cell growth, A431. In a few lines:
as §1

In assay [4] the test system is A375 (malignant melanoma). The experiment in a line: MTT antiproliferative assay, A375. The assay is classed as cell-based. Particulars: Homo sapiens, A-375, A375, 10 μM, 48 or 72 h, read-out: inhibition of cell growth, A375. The essentials: as §1
For a further assay, the system named is HepG2 (liver cancer). The assay is described as follows: MTT antiproliferative assay, HepG2. In kind it is cell-based. Particulars: Homo sapiens, HepG2, 10 μM, 48 or 72 h, read-out: inhibition of cell growth, HepG2. In a few lines:
as §1

What is called pKd is −log10 of the Kd, conventionally taken in molar units. What is called inhibition is the share of the control response that was lost under treatment.

As for `CO[C@]1(C)C(=O)C(=O)C=C2C1=CC=C1[C@@]2(C)CC[C@@]2(C)[C@@H]3C[C@](C)(C(=O)O)CC[C@]3(C)CC[C@]12C` [Compound A1, (2R,4aS,6aS,9S,12bR,14aS,14bR)-9-methoxy-2,4a,6a,9,12b,14a-hexamethyl-10,11-dioxo-1,2,3,4,4a,5,6,6a,9,10,11,12b,13,14,14a,14b-hexadecahydropicene-2-carboxylic acid], at Nur77-LBD, the pKd was 6.41. The inhibition at 10 µM in assay [1] is 50 to 80%; in the assay with HeLa (ovarian cancer), at least 80%; in the assay with SW620 (colon cancer) it was 50 to 80%; in assay [2], 30 to 50%; in assay [3], 50 to 80%; in assay [4], 30 to 50%. Further, in the assay on HepG2 (liver cancer), the inhibition at 10 µM lay within 50 to 80%.
Consider `[2H]C([2H])([2H])O[C@]1(C)C(=O)C(=O)C=C2C1=CC=C1[C@@]2(C)CC[C@@]2(C)[C@@H]3C[C@](C)(C(=O)O)CC[C@]3(C)CC[C@]12C` [Compound A2, (2R,4aS,6aS,9S,12bR,14aS,14bR)-9-(methoxy-d3)-2,4a,6a,9,12b,14a-hexamethyl-10,11-dioxo-1,2,3,4,4a,5,6,6a,9,10,11,12b,13,14,14a,14b-hexadecahydropicene-2-carboxylic acid], for which the inhibition at 10 µM is 50 to 80% in assay [1]; at least 80% in the assay on HeLa (ovarian cancer); 30 to 50% in the assay on SW620 (colon cancer); 30 to 50% in assay [2]; 50 to 80% in assay [3]; 30 to 50% in assay [4]. Also, in the assay with HepG2 (liver cancer), the inhibition at 10 µM was 50 to 80%.
With `CO[C@@]1(C)C2=CC=C3[C@@](C)(CC[C@@]4(C)[C@@H]5C[C@](C)(C(=O)OCc6ccccc6)CC[C@]5(C)CC[C@]34C)C2=CC(=O)[C@@H]1O` [Compound A16, benzyl (2R,4aS,6aS,9S,10R,12bR,14aS,14bR)-10-hydroxy-9-methoxy-2,4a,6a,9,12b,14a-hexamethyl-11-oxo-1,2,3,4,4a,5,6,6a,9,10,11,12b,13,14,14a,14b-hexadecahydropicene-2-carboxylate], the inhibition at 10 µM in assay [1] is at least 80%; with HeLa (ovarian cancer) it was at least 80%; in the assay on SW620 (colon cancer), at least 80%; in assay [2], at least 80%; in assay [3] it was at least 80%; in assay [4] it was 50 to 80%. Besides, in the assay with HepG2 (liver cancer), the inhibition at 10 µM is at least 80%.
For the compound `CO[C@@]1(C)C2=CC=C3[C@@](C)(CC[C@@]4(C)[C@@H]5C[C@](C)(C=O)CC[C@]5(C)CC[C@]34C)C2=CC(=O)[C@@H]1O` [Compound A19, (2R,4aS,6aS,9S,10R,12bR,14aS,14bR)-10-hydroxy-9-methoxy-2,4a,6a,9,12b,14a-hexamethyl-11-oxo-1,2,3,4,4a,5,6,6a,9,10,11,12b,13,14,14a,14b-hexadecahydropicene-2-carbaldehyde], the inhibition at 10 µM was 50 to 80% in assay [1]; at least 80% in the assay on HeLa (ovarian cancer); 50 to 80% with SW620 (colon cancer); 50 to 80% in assay [2]; at least 80% in assay [3]; 30 to 50% in assay [4]. The inhibition at 10 µM in the assay with HepG2 (liver cancer) lay in the range of 50 to 80%.
`CO[C@@]1(C)C2=CC=C3[C@@](C)(CC[C@@]4(C)[C@@H]5C[C@](C)(C(=O)O)CC[C@]5(C)CC[C@]34C)C2=CC(=O)/C1=C/C#N` [Compound A31, (2R,4aS,6aS,9S,10E,12bR,14aS,14bR)-10-(cyanomethylidene)-9-methoxy-2,4a,6a,9,12b,14a-hexamethyl-11-oxo-1,2,3,4,4a,5,6,6a,9,10,11,12b,13,14,14a,14b-hexadecahydropicene-2-carboxylic acid]: the inhibition at 10 µM in assay [1] was at least 80%; in the assay on HeLa (ovarian cancer), at least 80%; in the assay on SW620 (colon cancer) it was at least 80%; in assay [2], 50 to 80%; in assay [3] it was 50 to 80%; in assay [4], 50 to 80%. Also, the inhibition at 10 µM in the assay on HepG2 (liver cancer) fell in the range of 50 to 80%.
In the case of `COC(=O)[C@]1(C)CC[C@]2(C)CC[C@]3(C)C4=CC=C5C(=CC(=O)C(=O)C5(C)O)[C@]4(C)CC[C@@]3(C)[C@@H]2C1` (stereo partly drawn) [Compound A32, methyl (2R,4aS,6aS,12bR,14aS,14bR)-9-hydroxy-2,4a,6a,9,12b,14a-hexamethyl-10,11-dioxo-1,2,3,4,4a,5,6,6a,9,10,11,12b,13,14,14a,14b-hexadecahydropicene-2-carboxylate], the inhibition at 10 µM in assay [1] was at least 80%; in the assay on HeLa (ovarian cancer), at least 80%; in the assay on SW620 (colon cancer), at least 80%; in assay [2], at least 80%; in assay [3], at least 80%; in assay [4], 50 to 80%. Also, in the assay on HepG2 (liver cancer), the inhibition at 10 µM is at least 80%.
With `CO[C@@]1(C)C2=CC=C3[C@@](C)(CC[C@@]4(C)[C@@H]5C[C@](C)(C(N)=O)CC[C@]5(C)CC[C@]34C)C2=CC(=O)[C@@H]1O` [Compound A55, (2R,4aS,6aS,9S,10R,12bR,14aS,14bR)-10-Hydroxy-9-methoxy-2,4a,6a,9,12b,14a-hexamethyl-11-oxo-1,2,3,4,4a,5,6,6a,9,10,11,12b,13,14,14a,14b-hexadecahydropicene-2-carboxamide], the inhibition at 10 µM in assay [1] is 50 to 80%; in the assay on HeLa (ovarian cancer), 50 to 80%; in the assay with SW620 (colon cancer), at least 80%; in assay [2] it was 50 to 80%; in assay [3], at least 80%; in assay [4], 30 to 50%. Moreover, the inhibition at 10 µM with HepG2 (liver cancer) is at least 80%.
Regarding `COC(=O)[C@]1(C)CC[C@]2(C)CC[C@]3(C)C4=CC=C5C(=CC(=O)[C@H](O)[C@@]5(C)OC)[C@]4(C)CC[C@@]3(C)[C@@H]2C1` [Compound A20, methyl (2R,4aS,6aS,9S,10R,12bR,14aS,14bR)-10-hydroxy-9-methoxy-2,4a,6a,9,12b,14a-hexamethyl-11-oxo-1,2,3,4,4a,5,6,6a,9,10,11,12b,13,14,14a,14b-hexadecahydropicene-2-carboxylate], the inhibition at 10 µM is at least 80% in assay [1]; at least 80% with HeLa (ovarian cancer); at least 80% in the assay with SW620 (colon cancer); at least 80% in assay [2]; at least 80% in assay [3]; 50 to 80% in assay [4]. Moreover, in the assay with HepG2 (liver cancer), the inhibition at 10 µM is at least 80%.
In the case of `COC(=O)[C@]1(C)CC[C@]2(C)CC[C@]3(C)C4=CC=C5C(=CC(=O)C(O)C5(C)O)[C@]4(C)CC[C@@]3(C)[C@@H]2C1` (stereo partly drawn) [Compound A35, methyl (2R,4aS,6aS,12bR,14aS,14bR)-9,10-dihydroxy-2,4a,6a,9,12b,14a-hexamethyl-11-oxo-1,2,3,4,4a,5,6,6a,9,10,11,12b,13,14,14a,14b-hexadecahydropicene-2-carboxylate], the inhibition at 10 µM in assay [1] is at least 80%; in the assay with HeLa (ovarian cancer) it was at least 80%; in the assay on SW620 (colon cancer), at least 80%; in assay [2] it was at least 80%; in assay [3] it was at least 80%; in assay [4], 50 to 80%. The inhibition at 10 µM in the assay with HepG2 (liver cancer) is at least 80%.
For `CO[C@]1(C)C(=O)C(=O)C=C2C1=CC=C1[C@@]2(C)CC[C@@]2(C)[C@@H]3C[C@](C)(C(=O)NCCO)CC[C@]3(C)CC[C@]12C` [Compound A44, (2R,4aS,6aS,9S,12bR,14aS,14bR)—N-(2-hydroxyethyl)-9-methoxy-2,4a,6a,9,12b,14a-hexamethyl-10,11-dioxo-1,2,3,4,4a,5,6,6a,9,10,11,12b,13,14,14a,14b-hexadecahydropicene-2-carboxamide], the inhibition at 10 µM in assay [1] is at least 80%; in the assay on HeLa (ovarian cancer), at least 80%; with SW620 (colon cancer), 50 to 80%; in assay [2], at least 80%; in assay [3], at least 80%; in assay [4], 30 to 50%. For the same compound, the inhibition at 10 µM with HepG2 (liver cancer) was at least 80%.
Turning to `CCCC(=O)O[C@H]1C(=O)C=C2C(=CC=C3[C@@]2(C)CC[C@@]2(C)[C@@H]4C[C@](C)(C(=O)NC)CC[C@]4(C)CC[C@]32C)[C@]1(C)OC` [Compound A23, (3R,4S,6bS,8aS,11R,12aR,12bS,14aR)-4-methoxy-4,6b,8a,11,12b,14a-hexamethyl-11-(methylcarbamoyl)-2-oxo-2,3,4,6b,7,8,8a,9,10,11,12,12a,12b,13,14,14a-hexadecahydropicen-3-yl butyrate], the inhibition at 10 µM in assay [1] is at least 80%; in the assay on HeLa (ovarian cancer), at least 80%; in the assay with SW620 (colon cancer), at least 80%; in assay [2] it was at least 80%; in assay [3] it was at least 80%; in assay [4], 50 to 80%. For the same compound, the inhibition at 10 µM with HepG2 (liver cancer) is at least 80%.
